Patent US9840481B2, “Allosteric modulators of nicotinic acetylcholine receptors” (MERCK SHARP & DOHME CORP., priority 2016, dated 2017)
Where two headings read alike, the source gives them in different places.

Target: T1, human α7 nAChR stably expressed in a HEK cell line (with human RIC-3) (Homo sapiens, UniProt P36544)
T1 construct: PrecisION hnAChR α7/RIC-3
Test: Automated patch-clamp electrophysiology functional assay (Assay A), IonFlux HT, whole-cell population patch
Format: cell-based
How it was run: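 Whole-cell population patch clamp (IonFlux HT) used HEK cells stably co-expressing human α7 and RIC-3, held at −60 mV at room temperature. Compounds were applied alone (agonism) or with 40 μM acetylcholine (potentiation), three ascending concentrations per recording. Currents were quantified relative to a 40 μM acetylcholine reference response, giving EC50.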

[1] = automated patch-clamp electrophysiology functional assay (Assay A), potency class by EC50, read-out: α7 nAChR Potency
[2] = electrophysiology EC50, HEK cells expressing human α7/RIC-3, 40 μM acetylcholine, holding potential −60 mV, room temperature, read-out: α7 nAChR EC50

T1 sequence (P36544 23-502): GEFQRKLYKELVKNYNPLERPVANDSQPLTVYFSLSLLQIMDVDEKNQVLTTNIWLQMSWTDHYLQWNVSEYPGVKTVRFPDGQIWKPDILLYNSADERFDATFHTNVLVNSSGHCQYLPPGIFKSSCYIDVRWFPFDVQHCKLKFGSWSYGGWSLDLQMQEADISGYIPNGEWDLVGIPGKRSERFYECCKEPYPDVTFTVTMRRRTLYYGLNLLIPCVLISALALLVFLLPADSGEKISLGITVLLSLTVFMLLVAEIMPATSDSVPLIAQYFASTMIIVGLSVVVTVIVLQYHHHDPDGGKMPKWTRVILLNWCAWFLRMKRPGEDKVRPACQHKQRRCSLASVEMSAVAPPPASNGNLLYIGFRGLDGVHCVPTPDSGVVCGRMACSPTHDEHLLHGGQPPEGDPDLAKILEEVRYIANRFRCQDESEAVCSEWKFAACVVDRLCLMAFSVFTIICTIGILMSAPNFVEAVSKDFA

SMILES | EC50 [1] | EC50 [2]
CC1(C)[C@@H](c2ccc(S(N)(=O)=O)cc2)[C@@H]1c1ncc(-c2ccccc2)s1 [Example 17, 4-[(1S,3S)-2,2-Dimethyl-3-(5-phenyl-1,3-thiazol-2-yl)cyclopropyl]benzenesulfonamide] | 500 to 5000 nM | 2000 nM
NS(=O)(=O)c1ccc([C@@H]2C[C@H]2c2nc(-c3ccccc3)no2)cc1 [Example C5] | 100 to 500 nM | 120 nM
CC(C)c1noc([C@@H]2[C@@H](c3ccc(S(N)(=O)=O)cc3)C2(C)C)n1 [Example B1] | 500 to 5000 nM | 1500 nM
CC1(C)[C@@H](c2ccc(S(N)(=O)=O)cc2)[C@@H]1c1nnc(-c2cccc(C(F)(F)F)c2)o1 [Example G2] | 500 to 5000 nM | 
CC1(C)[C@@H](c2ccc(S(N)(=O)=O)cc2)[C@@H]1c1nc(-c2cccnc2C(F)(F)F)no1 [Example D30] | 500 to 5000 nM | 1200 nM
NS(=O)(=O)c1ccc([C@@H]2[C@@H](c3nsc(N4CCCCC4)n3)C2(F)F)cc1 [Example L12] | 100 to 500 nM | 
NS(=O)(=O)c1ccc([C@@H]2[C@@H](c3nc(-c4ccccc4)no3)C2(F)F)cc1 [Example A9] | 500 to 5000 nM | 
CC1(C)[C@@H](c2ccc(S(N)(=O)=O)cc2)[C@@H]1c1nnc(-c2cccnc2C2CC2)o1 [Example G12] | 500 to 5000 nM | 
NS(=O)(=O)c1ccc([C@@H]2C[C@H]2c2cnc(C3CCCC3)o2)cc1 [Example L21] | 500 to 5000 nM | 
CC1(C)[C@@H](c2ccc(S(N)(=O)=O)cc2)[C@@H]1c1nc(-c2cncc(F)c2)no1 [Example D6] | 500 to 5000 nM | 820 nM
CC1(C)[C@@H](c2ccc(S(N)(=O)=O)cc2)[C@@H]1c1nnc(CC2CC2)o1 [Example G11] | 500 to 5000 nM | 4500 nM
NS(=O)(=O)c1ccc([C@@H]2C[C@H]2c2cnc(C3CCCCC3)o2)cc1 [Example 28, 4-[(1R,2R)-2-(2-Cyclohexyl-1,3-oxazol-5-yl)cyclopropyl]benzenesulfonamide] | 100 to 500 nM | 460 nM
CC1(C)[C@@H](c2ccc(S(N)(=O)=O)cc2)[C@@H]1c1nc(-c2ccccn2)no1 [Example D4] | 5000 to 50000 nM | 6800 nM
CC1(C)C(c2ccc(OS(N)(=O)=O)cc2)C1c1nc(-c2ccccc2)no1 (stereo not drawn) [Example 30, 4-[trans-2,2-Dimethyl-3-(3-phenyl-1,2,4-oxadiazol-5-yl)cyclopropyl]phenyl sulfamate] | 500 to 5000 nM | 1400 nM
Cc1ccc(F)cc1-c1noc([C@H]2[C@H](c3ccc(S(N)(=O)=O)cc3)C2(C)C)n1 [Example 1, 4-((1S,3S)-3-(3-(5-Fluoro-2-methylphenyl)-1,2,4-oxadiazol-5-yl)-2,2-dimethylcyclopropyl)-benzenesulfonamide] | 500 to 5000 nM | 4100 nM
CC1(C)[C@H](c2ccc(S(N)(=O)=O)cc2)[C@H]1c1nc(-c2ccc(F)cc2F)no1 [Example A7] | 500 to 5000 nM | 1300 nM
CC1(C)[C@@H](c2ccc(S(N)(=O)=O)cc2)[C@@H]1c1nnc(C2CCCC2)s1 [Example G14] | 500 to 5000 nM | 920 nM
CC1(C)[C@H](c2ccc(S(N)(=O)=O)cc2)[C@H]1c1nnc(-c2ccc(F)cc2F)s1 [Example 5, 4-{(1R,3R)-3-[5-(2,4-Difluorophenyl)-1,3,4-thiadiazol-2-yl]-2,2-dimethylcyclopropyl}benzenesulfonamide] | 100 to 500 nM | 180 nM
NS(=O)(=O)c1ccc([C@@H]2C[C@H]2c2nc(-c3ccccc3F)no2)cc1 [Example C20] | 100 to 500 nM | 

SMILES | EC50 [1] | EC50 [2]
NS(=O)(=O)c1ccc([C@H]2C[C@@H]2c2nc(-c3cncc(F)c3)no2)cc1 [Example B5] | 5000 to 50000 nM | 
NS(=O)(=O)c1ccc([C@@H]2C[C@H]2c2nc(-c3cnccc3C(F)(F)F)no2)cc1 [Example D22] | 500 to 5000 nM | 
CC1(C)[C@@H](c2ccc(S(N)(=O)=O)cc2)[C@@H]1c1nc(C2CCC2)no1 [Example D7] | 100 to 500 nM | 
Cc1ccc(-c2noc([C@@H]3C[C@H]3c3ccc(S(N)(=O)=O)cc3)n2)cc1 [Example C19] | 500 to 5000 nM | 510 nM
CC1(C)[C@@H](c2ccc(S(N)(=O)=O)cc2)[C@@H]1c1nc(C2CC(F)(F)C2)no1 [Example D18] | ≤ 100 nM | 95 nM
NS(=O)(=O)c1ccc([C@@H]2C[C@H]2c2nc(-c3c(F)cccc3F)no2)cc1 [Example C9] | 500 to 5000 nM | 
NS(=O)(=O)c1ccc([C@@H]2C[C@H]2c2nc(Cc3ccc(F)cc3F)no2)cc1 [Example D26] | 500 to 5000 nM | 810 nM
CC(C)(C)c1noc([C@H]2[C@H](c3ccc(S(N)(=O)=O)cc3)C2(C)C)n1 [Example D10] | 100 to 500 nM | 410 nM
NS(=O)(=O)c1ccc([C@@H]2[C@@H](c3nc(C4CCC4)no3)C2(F)F)cc1 [Example B18] | 500 to 5000 nM | 1200 nM
CC1(C)[C@@H](c2ccc(S(N)(=O)=O)cc2)[C@@H]1c1nnc(C2CCCCC2)s1 [Example G13] | 500 to 5000 nM | 2200 nM
NS(=O)(=O)c1ccc([C@@H]2C[C@H]2c2nc(-c3cccc(Br)c3)no2)cc1 [Example C10] | 500 to 5000 nM | 
CC1(C)[C@@H](c2ccc(S(N)(=O)=O)cc2)[C@@H]1c1nnc(-c2c(F)cccc2F)o1 [Example G5] | 500 to 5000 nM | 1300 nM
CC1(C)[C@@H](c2ccc(S(N)(=O)=O)cc2)[C@@H]1c1nc(-c2ccc(F)cc2F)no1 [Example C12] | 500 to 5000 nM | 
CC1(C)[C@H](c2ccc(S(N)(=O)=O)cc2)[C@H]1c1cn(-c2ccccc2)nn1 [Example 12, 4-[(1R,3R)-2,2-Dimethyl-3-(1-phenyl-1H-1,2,3-triazol-4-yl)cyclopropyl]benzenesulfonamide] | 500 to 5000 nM | 910 nM
CC(C)Oc1ccc(Cl)cc1-c1noc([C@H]2[C@H](c3ccc(S(N)(=O)=O)cc3)C2(C)C)n1 [Example C3] | 5000 to 50000 nM | 6100 nM
NS(=O)(=O)c1ccc([C@@H]2C[C@H]2c2nc(CC3CC3)no2)cc1 [Example D28] | 500 to 5000 nM | 
NS(=O)(=O)c1ccc([C@@H]2C[C@H]2c2nc(-c3cccc(F)c3)cs2)cc1 [Example 14, 4-{(1R,2R)-2-[4-(3-Fluorophenyl)-1,3-thiazol-2-yl]cyclopropyl}benzenesulfonamide] | 100 to 500 nM | 200 nM
NS(=O)(=O)c1ccc([C@@H]2C[C@H]2c2ccn(Cc3cccc(F)c3)n2)cc1 [Example 23, 4-{(1R,2R)-2-[1-(3-Fluorobenzyl)-1H-pyrazol-3-yl]cyclopropyl}benzenesulfonamide] | 100 to 500 nM | 460 nM

Second part, the compound after the results:

EC50 [1] | EC50 [2] | SMILES
500 to 5000 nM |  | CCOc1nc([C@@H]2[C@@H](c3ccc(S(N)(=O)=O)cc3)C2(C)C)ns1 [Example L9]
500 to 5000 nM |  | CC1(C)[C@@H](c2ccc(S(N)(=O)=O)cc2)[C@@H]1c1noc(-c2ccc(OC(F)(F)F)cc2)n1 [Example H13]
100 to 500 nM | 210 nM | NS(=O)(=O)c1ccc(C2CC2c2nc(-c3cccc(F)c3)ns2)cc1 (single isomer, unassigned) [Example M4]
500 to 5000 nM |  | CC1(C)[C@@H](c2ccc(S(N)(=O)=O)cc2)[C@@H]1c1ncc(C2CCCC2)o1 [Example K14]
100 to 500 nM | 220 nM | CC1(C)[C@H](c2ccc(S(N)(=O)=O)cc2)[C@H]1c1noc(-c2cccc(F)c2)n1 [Example L18]
500 to 5000 nM |  | CC1(C)[C@@H](c2ccc(S(N)(=O)=O)cc2)[C@@H]1c1noc(CC2CCCO2)n1 (stereo partly shown) [Example I15]
100 to 500 nM |  | CC1(C)[C@@H](c2ccc(S(N)(=O)=O)cc2)[C@@H]1c1noc(-c2ccc3nc(O)sc3c2)n1 [Example I32]
500 to 5000 nM |  | CC1(C)[C@@H](c2ccc(S(N)(=O)=O)cc2)[C@@H]1c1noc(-c2ccc(OCCF)nc2)n1 [Example I14]
500 to 5000 nM | 1400 nM | CC1(C)[C@@H](c2ccc(S(N)(=O)=O)cc2)[C@@H]1c1noc(-c2cccc(C3CC3)c2)n1 [Example H9]
500 to 5000 nM | 620 nM | CC(C)(C)c1coc([C@H]2[C@H](c3ccc(S(N)(=O)=O)cc3)C2(C)C)n1 [Example K7]
500 to 5000 nM | 1400 nM | NS(=O)(=O)c1ccc([C@@H]2C[C@H]2c2noc(-c3cncc(F)c3)n2)cc1 [Example I36]
100 to 500 nM |  | NS(=O)(=O)c1ccc([C@@H]2C[C@H]2c2ncc(-c3cccc(F)c3)s2)cc1 [Example K20]
500 to 5000 nM |  | NS(=O)(=O)c1ccc([C@H]2C[C@@H]2c2cnc(-c3ccccc3)s2)cc1 [Example L22]
500 to 5000 nM | 1700 nM | CC1C(c2ccc(S(N)(=O)=O)cc2)C1c1nc(-c2ccccc2)no1 (single isomer, unassigned) [Example M2]
100 to 500 nM | 160 nM | NS(=O)(=O)c1ccc([C@H]2[C@H](c3nc(C4CCCCC4)cs3)C2(F)F)cc1 [Example K19]
500 to 5000 nM | 510 nM | CC1(C)[C@@H](c2ccc(S(N)(=O)=O)cc2)[C@@H]1c1noc(-c2ccc(F)cc2Cl)n1 [Example H2]
500 to 5000 nM | 1200 nM | CC1(C)[C@@H](c2ccc(S(N)(=O)=O)cc2)[C@@H]1c1noc(-c2ccc(C#N)cc2)n1 [Example H12]
100 to 500 nM | 380 nM | CC1(C)[C@@H](c2ccc(S(N)(=O)=O)cc2)[C@@H]1c1nc(-c2ccc(F)cc2F)co1 [Example K3]
500 to 5000 nM | 710 nM | Cc1ncoc1-c1nc([C@H]2[C@H](c3ccc(S(N)(=O)=O)cc3)C2(C)C)no1 [Example I7]
500 to 5000 nM |  | CC1(C)[C@@H](c2ccc(S(N)(=O)=O)cc2)[C@@H]1c1noc(C(O)C(F)(F)F)n1 (stereo partly shown) [Example I28]
100 to 500 nM | 110 nM | CC1(C)[C@@H](c2ccc(S(N)(=O)=O)cc2)[C@@H]1c1noc(-c2c(F)cccc2F)n1 [Example H8]
